One assay deals with T1, human rec ACSS2 (Homo sapiens, UniProt Q9NR19).
T1 construct: myc (C); purchased Origene
Put plainly: Biochemical activity ACSS2 assay (AMP-Glo). Conditions: human recombinant ACSS2, AMP-Glo, 180 min at 37° C. In a few lines:
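C-terminal myc-tagged human recombinant ACSS2 (1 nM) reacted with 100 µM ATP, 100 µM CoA and 500 µM acetate (final) in pH 7.5 Hepes buffer for 180 min at 37° C, compound in 10 concentrations from 30 µM. Released AMP detected by AMP-Glo luminescence. IC50 normalised to inhibitor-free reaction and 5 µM reference inhibitor.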

Assay [1] deals with T2, ACSS2 (Homo sapiens, UniProt Q9NR19).
T2 construct: endogenous fatty acid synthesis activity in the human HCT-15 cancer cell line; endogenous in cells; host or cells: HCT-15
Put plainly: Cellular assay of 14C acetate incorporation into fatty acids (IC50 ACSS2 cellular lipids). The assay is classed as cell-based. The conditions noted are these: HCT-15 cells. The method, then: This protocol describes a cellular assay capable to quantify endogenous fatty acid synthesis activity in the human HCT-15 cancer cell line following the incorporation of extracellularly administered radiolabeled ^14C acetate with a scintillation proximity based read out on extracted fatty acids.
HCT-15 cells were grown in RPMI 1640 (Gibco) supplemented with 2 mM glutamine, 1 mM sodium pyruvate 10 mM HEPES and 10 % FCS (heat-inactivated) passaged every 2-3 days to remain a subconfluent, vital culture. A working cell bank was prepared with each aliquot containing 1x10^7 viable cells. After thawing, these cells are dilute immediately 1:20 in pre-warmed (37° C.) culture medium. Cells are collected by centrifugation at 200 x g for 5 min, and the supernatant is replaced by 30 mL of fresh culture medium per aliquot to obtain a cell suspension containing 350000 cells/ml. From this cell suspension 100 µL are dispersed into each well of a collagen coated 96 well plate, (black, clear bottom, PS, F-bottom, Greiner) and culture for 24 h (37° C., 5% CO2). After incubation the culture medium is removed and the wells are washed once with 100 µL PBS++ (supplemented with Mg^2+/ Ca^2+, Gibco) and 50 µL assay medium (RPMI 1640 + 10 mM HEPES) are added to each well. Compounds serial dilutions are prepared from 10 mM stock solutions in DMSO using a fixed dilution factor (usually 1:3). After preparation of the dilution series in DMSO, the individual dilutions are further diluted in the assay medium. This working dilution is prepared such, that the concentration is 7x of the final concentration in the assay. The maximal DMSO concentration in the final assay is 0.1%.
To each well 10 µL compound working dilution or DMSO blank are added and the cells are cultured for 2 h (37° C., 5% CO2). Then 10 µL AlamarBlue reagent (Invitrogen) containing 14 µCi/mL ^14C-acetate (Perkin Elmer) are added to each well (70 µl total volume) and cells are again cultured for 2 h. Cell viability is verified by measuring the AlamarBlue fluorescence (Tecan Safire, ex: 544 nm / em: 590 nm). After incubation the culture medium is removed and the wells are carefully washed once with cold 100 µL PBS++. For cell lysis and fatty acid recovery 50 µl 0.1 M NaOH and 0.1 % Triton-X100 are added per well. The plate is sealed with PlateLoc (clear peelable heat seal, Agilent) and incubate at 70° C. for 16-24 h. After cooling to room temperature, the plates are centrifuged for 1 min at 1000 rpm and the plate seals are removed. For acidification 150 µL 0.1 M HCl are added to each well, mixed and 150 µL of the mixture are transferred into a 96 well FlashPlate (Perkin Elmer). The plates are sealed with TopSeaI-a (Perkin Elmer). To allow for the fatty acid binding to the well surfaces the plates are incubate for 4 h at 70° C. After cooling to room temperature, the plates are centrifuged for 1 min at 1000 rpm and stored for 0.5-2 h at room temperature in the dark. Radioactivity from ^14C incorporation into fatty acids in the wells is measured as CPM count in a MicroBeta scintillation counter (Perkin Elmer).

Assay [2] has as its target T2, ACSS2. Briefly: Cellular assay of 14C acetate incorporation into histones (IC50 ACSS2 cellular histone). It counts as cell-based. Conditions: HCT-15 cells. In a few lines: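 Human HCT-15 cells preincubated 1 h with compound (0.25% DMSO final), then pulsed 3 h with 14C-acetate. Histones were acid-extracted (0.2 M HCl, overnight, 4° C) after Triton lysis in sodium-butyrate buffer; incorporated 14C counted by liquid scintillation (CPM) to give IC50.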

pIC50: −log10 of the molar value.

T2 sequence (Q9NR19 whole entry): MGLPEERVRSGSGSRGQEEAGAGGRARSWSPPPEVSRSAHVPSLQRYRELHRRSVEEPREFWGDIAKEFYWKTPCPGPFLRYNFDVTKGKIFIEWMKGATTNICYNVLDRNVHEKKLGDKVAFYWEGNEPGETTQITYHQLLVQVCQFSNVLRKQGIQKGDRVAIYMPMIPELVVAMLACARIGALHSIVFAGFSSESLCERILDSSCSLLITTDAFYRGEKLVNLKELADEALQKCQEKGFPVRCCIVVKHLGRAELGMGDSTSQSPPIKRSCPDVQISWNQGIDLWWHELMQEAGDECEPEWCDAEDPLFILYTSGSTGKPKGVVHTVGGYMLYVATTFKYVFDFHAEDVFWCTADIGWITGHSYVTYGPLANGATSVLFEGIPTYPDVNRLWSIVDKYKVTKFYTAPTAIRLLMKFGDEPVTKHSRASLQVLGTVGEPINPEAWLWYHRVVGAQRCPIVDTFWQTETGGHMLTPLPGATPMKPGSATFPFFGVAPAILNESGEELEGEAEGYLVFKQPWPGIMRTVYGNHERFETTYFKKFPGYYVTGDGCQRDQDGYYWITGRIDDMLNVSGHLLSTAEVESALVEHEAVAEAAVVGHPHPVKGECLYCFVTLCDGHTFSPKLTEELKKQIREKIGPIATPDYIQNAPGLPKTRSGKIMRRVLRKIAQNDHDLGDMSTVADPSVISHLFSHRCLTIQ
T1 sequence (Q9NR19 whole entry): as above

In general, pIC50 refers to the negative decadic logarithm of the IC50, by convention in mol/L. As for `CCn1c(C(O)(c2ccccc2)c2ccccc2)nc2nc(Cl)c(C(=O)Nc3cnn(CCO)c3)cc21` [Compound 66, 5-chloro-1-ethyl-2-(hydroxydiphenylmethyl)-N-[1-(2-hydroxyethyl)-1H-pyrazol-4-yl]-1H-imidazo[4,5-b]pyridine-6-carboxamide], the values for the pIC50 at human rec ACSS2, at ACSS2 [1] and against ACSS2 [2] were 5.00 to 7.00, 8.00 to 9.00 and 7.00 to 8.00, respectively.
On the same counts, the results for `CCn1cc(NC(=O)c2cc3c(nc2F)nc(C(O)(c2ccccc2)c2ccccc2)n3CC)cn1` [Compound 92, 1-ethyl-N-(1-ethyl-1H-pyrazol-4-yl)-5-fluoro-2-(hydroxydiphenylmethyl)-1H-imidazo[4,5-b]pyridine-6-carboxamide] are 7.00 to 8.00, 8.00 to 9.00 and 8.00 to 9.00.
In the same order, the values of `CCn1c(C(O)(c2ccccc2)c2ccccc2)nc2nc(OC)c(C(=O)Nc3ncn(CCOC)n3)cc21` [Compound 68, 1-ethyl-2-(hydroxydiphenylmethyl)-5-methoxy-N-[1-(2-methoxyethyl)-1H-1,2,4-triazol-3-yl]-1H-imidazo[4,5-b]pyridine-6-carboxamide] are 7.00 to 8.00, 5.00 to 7.00 and 7.00 to 8.00.
On the same counts, the results for `CCn1cnc(NC(=O)c2cc3c(nc2OC)nc(C(O)(c2ccccc2)c2cccs2)n3CC)n1` (racemic) [Compound 47, 1-ethyl-N-(1-ethyl-1H-1,2,4-triazol-3-yl)-2-[hydroxy(phenyl)(thiophen-2-yl)methyl]-5-methoxy-1H-imidazo[4,5-b]pyridine-6-carboxamide] are 8.00 to 9.00, 7.00 to 8.00 and 9.00 to 11.00.
For `CCn1cnc(NC(=O)c2cc3c(nc2OC)nc(C(O)(c2ccccc2)c2ccccn2)n3CC)n1` (racemic) [Compound 69, 1-ethyl-N-(1-ethyl-1H-1,2,4-triazol-3-yl)-2-[hydroxy(phenyl)(pyridin-2-yl)methyl]-5-methoxy-1H-imidazo[4,5-b]pyridine-6-carboxamide], the results for the pIC50 at human rec ACSS2, against ACSS2 [1] and at ACSS2 [2] were 8.00 to 9.00, 8.00 to 9.00 and 9.00 to 11.00, respectively.
Turning to `CCc1nnc(CNC(=O)c2cc3c(nc2OC)nc(C(O)(c2ccccc2)c2ccccc2)n3CC)o1` [Compound 62, 1-ethylN-[(5-ethyl-1,30,4-oxadiazol-2-yl)methyl]-2-(hydroxydiphenylmethyl)-5-methoxy-1H-imidazo[4,5-b]pyridine-6-carboxamide], the pIC50 on human rec ACSS2 is 7.00 to 8.00; on ACSS2 [1], 8.00 to 9.00; on ACSS2 [2], 7.00 to 8.00.
